Earlier results as cited in patent US12458625B2, “Methods and compositions for soft anticholinergic esters” (Bodor Laboratories, Inc., priority 2015, dated 2025).

Settings: solid oral form

What does the source list for C[N+]1(C)CCC(OC(=O)C(O)(c2ccccc2)C2CCCC2)C1 (stereo not drawn) [glycopyrrolate]?
reducing drooling (children): effective in reducing drooling; dropped out of the study because of adverse effects to the medication (children, most with cerebral palsy): over 20%; children affected by adverse events (most with cerebral palsy): 69%
